# Patent US20130029391A1, “METHOD OF PREPARING KODA USING LEMNA PAUCICOSTATA” (priority 2010, published 2013)
# How the values were obtained:
# [1] = test system: Lemna paucicostata SH strain position 9-product specific lipoxygenase SHLpLOX (LpLOX-SH), SEQ ID NO: 3; details: 40 mM phosphate buffer (pH 6.0), 0.1% Tween 80, 25° C; substrate 10-100 μM
# Procedure: The sequence of SHLpLOSX obtained was introduced into a vector (pET23d, Novagen) for protein expression, and then transformed into Escherichia coli (BL21(DE3), Novagen), so as to allow the expression of SHLpLOX protein. Using this SHLpLOX protein, the activity test in KODA production was carried out. […] Using a reaction mixture comprising 40 mM phosphate buffer (pH 6.0) and 0.1% Tween 80, the analysis was carried out at a temperature of 25° C. […] The amount of the reaction product was calculated from the […] determined (e=25,000). Kinetic parameters were determined using the Hanes-Woolf plot ([S]/v versus [S] plot).
# [2] = target: rice germ position 9-specific lipoxygenase r9-LOX1 (Oryza sativa, UniProt Q76I22); details: 40 mM phosphate buffer (pH 6.0), 0.1% Tween 80, 25° C; substrate 10-100 μM
# Sequence of rice germ position 9-specific lipoxygenase r9-LOX1 (Q76I22 whole entry): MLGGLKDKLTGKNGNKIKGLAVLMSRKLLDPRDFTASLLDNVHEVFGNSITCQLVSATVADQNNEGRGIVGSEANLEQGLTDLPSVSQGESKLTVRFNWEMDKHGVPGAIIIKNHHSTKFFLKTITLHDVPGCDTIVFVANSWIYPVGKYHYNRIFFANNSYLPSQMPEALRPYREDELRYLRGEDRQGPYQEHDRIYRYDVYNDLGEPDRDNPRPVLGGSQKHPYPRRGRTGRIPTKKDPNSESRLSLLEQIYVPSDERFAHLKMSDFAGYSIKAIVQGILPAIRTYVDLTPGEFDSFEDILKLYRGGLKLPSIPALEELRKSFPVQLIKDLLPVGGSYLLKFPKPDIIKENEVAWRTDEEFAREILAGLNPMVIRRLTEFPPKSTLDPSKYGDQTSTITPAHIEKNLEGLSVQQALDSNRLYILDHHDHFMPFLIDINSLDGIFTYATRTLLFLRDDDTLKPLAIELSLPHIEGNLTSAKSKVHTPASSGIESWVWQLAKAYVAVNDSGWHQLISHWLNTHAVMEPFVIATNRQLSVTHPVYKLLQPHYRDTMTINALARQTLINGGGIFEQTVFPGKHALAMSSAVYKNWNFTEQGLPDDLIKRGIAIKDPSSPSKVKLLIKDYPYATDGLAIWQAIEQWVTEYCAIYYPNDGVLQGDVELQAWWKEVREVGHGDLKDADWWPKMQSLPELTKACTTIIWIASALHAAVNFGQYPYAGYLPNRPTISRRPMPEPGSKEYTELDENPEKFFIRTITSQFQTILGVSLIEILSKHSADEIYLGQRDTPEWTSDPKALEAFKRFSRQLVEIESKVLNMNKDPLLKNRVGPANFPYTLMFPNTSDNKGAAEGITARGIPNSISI
# Procedure: Using a reaction mixture comprising 40 mM phosphate buffer (pH 6.0) and 0.1% Tween 80, the analysis was carried out at a temperature of 25° C. […] The amount of the reaction product was calculated from the [MUT] determined (e=25,000). Kinetic parameters were determined using the Hanes-Woolf plot ([S]/v versus [S] plot).
# [3] = test system: Lemna paucicostata SH strain allene oxide synthase SHLpAOS, SEQ ID NO: 4; test: kinetic analysis of SHLpAOS with 9-HPOT (A234 decrease, Hanes-Woolf plot); type: biochemical
# Procedure: (§1) SHLpAOS obtained from Lemna paucicostata SH strain was subjected to kinetic analysis. […] The substrate 9-HPOT was tested at the substrate concentration of 5-53 μM. The substrate 9-HPOT was added as an EtOH solution, and the final concentration of EtOH was adjusted to 1%. 100 μl of the reaction mixture was added into a cuvette, and a decrease in absorbance at 234 nm was scanned over time for 1 minute at an interval of 2 seconds using the SmartSpec Plus Spectrophotometer (Bio-Rad). From the A234 determined, the amount of the reaction product was calculated (e=25,000). […] It is believed that compared to AtAOS, SHLpAOS is a very useful AOS in the practical production of KODA.
# [4] = Kinetic analysis of AOS, decrease in absorbance at 234 nm, Hanes-Woolf plot; type: biochemical; details: SHLpAOS versus AtAOS
# Procedure: as §1
# [5] = Activity test in KODA production: AOS reacted with 9-HPOT reaction mixture, HPLC; type: biochemical; details: 0.32 ng protein, 20 μl 9-HPOT reaction mixture, room temperature, 10 minutes; FIG. 5
# Procedure: (§2) To 20 μl of this 9-HPOT reaction mixture, 0.32 ng of the SHLpAOS protein or A. thaliana-derived AOS (AtAOS) protein was added and reacted at room temperature for 10 minutes. After the reaction was over, the reaction was terminated by a heat treatment at 50° C. for 3 minutes. 10 μl of this solution was analyzed by HPLC. HPLC analysis was carried out with a column: Capcell pak C-18 UG120 (4.6×250 mm), and using mobile phase: 50% acetonitrile solution (0.02% TFA), flow rate: 1 ml/min, detection wavelength: 210 nm.
# [6] = substrate: CC/C=C\C/C=C\C=C\[C@H](CCCCCCCC(=O)O)OO; test: kinetic analysis of AtAOS with 9-HPOT (A234 decrease, Hanes-Woolf plot); type: biochemical, Arabidopsis thaliana; details: other: 40 mM phosphate buffer (pH 7.5), 1% EtOH, 25° C, substrate 5-53 μM
# Procedure: as §2, §1
# [7] = Kinetic analysis of 9-LOX, absorbance at 234 nm, Hanes-Woolf plot; type: biochemical; details: SHLpLOX versus r9-LOX1
# Procedure: The substrate α-linolenic acid was tested at the substrate concentration of 10-100 μM. 100 μl of the reaction mixture was added into a cuvette, and absorbance at 234 nm was scanned over time for 10 minutes at an interval of 15 seconds using the SmartSpec Plus Spectrophotometer (Bio-Rad).
# [8] = Activity test in KODA production: HPLC of linolenic acid hydroperoxide formed by LOX; type: biochemical; details: 5 mM linolenic acid solution, pH 7, room temperature, 30 minutes; FIG. 4
# Procedure: HPLC analysis was carried out with a column: Capcell pak C-18 UG120 (4.6×250 mm, Shiseido), by using column temperature: 40° C., mobile phase: 50% acetonitrile solution (0.02% TFA), flow rate: 1 ml/min, detection wavelength: 210 nm.
# [9] = 40 mM phosphate buffer (pH 7.5), 1% EtOH, 25° C, substrate 5-53 μM
# [10] = higher in SHLpAOS than in AtAOS
molecule,measurement,setting,value
"CC/C=C\C/C=C\C/C=C\CCCCCCCC(=O)O [α-linolenic acid, cis-9,12,15-octadecatrienoic acid]",Km,[1],19.2 ± 4.1 µM
same,Vmax,[1],3.0 ± 0.1 µmol/min
same,kcat,[1],12.8 ± 0.538 s⁻¹
same,Km,[2],22.9 ± 1.6 µM
same,Vmax,[2],2.8 ± 0.6 µmol/min
same,kcat,[2],10.24 ± 2.077 s⁻¹
"CC/C=C\C/C=C\C=C\[C@H](CCCCCCCC(=O)O)OO [9-HPOT, 9-hydroperoxylinolenic acid]",Km,[3]; [9],7.1 ± 1.9 µM
same,Vmax,[3]; [9],4.7 ± 0.3 µmol/s
same,kcat,[3]; [9],709.2 ± 44.3 s⁻¹
same,"Kcat, SHLpAOS relative to AtAOS",[3]; [10],about 2.8 fold
same,"Vmax, SHLpAOS relative to AtAOS",[3]; [10],about 2.8 fold
"SHLpAOS: allene oxide synthase derived from Lemna paucicostata SH strain (SEQ ID NO: 4), expressed in Escherichia coli; printed as LpLOX-SH in Table 2 (protein, listed as Lemna paucicostata) MSVSQSDDKAALVPQKTIPGSYGIPFITPLKDRLDFFSNEYQFFQSRVESYGSTIVRLNAPPGPFMAKNPQVIAILDGKSFPVLFDTSKVEKKNIFTGTYMPSTALTGGYRVCAYLDPSEPNHTKIKQLLLNILFNRKDHVIPEFHRAYEKLFDDMDAEIAKSGKFVFNDHNDGAAFEFLGRLFFGVSPSETELGAGGVKDANLWLFSQLCPLMTLGFLPKLLEDLLLHTFPLPPFLFKGKYQAIYKYISSVATDALTMAENLGLSREEAAHNLLFAVCFNSLGGVKVLFPGILRYIAQAGKNLQASLVSEVRSAVSSTGGELTIEALEKMPLTKSVVYESLRLDPPVKYQYGVVKKDMVIESHDRSYEVKAGETLFGYQPFATRDKKIFGPDADNFVAERFIGEEGAKVLRFVVWSNGPETTDPTPVDKQCPGKNLVVLISRLLVAEFFLRYDFFDAEIGAVPLAVKTTITSLTKATTR",affinity for 9-HPOT (Km) relative to AtAOS,[4],about 5 fold
same,kcat/Km value relative to AtAOS,[4],about 14 fold
same,AOS activity relative to AtAOS protein,[5],~7 fold
Arabidopsis thaliana allene oxide synthase AtAOS (Arabidopsis thaliana) (protein) SGSETPDLTVATRTGSKDLPIRNIPGNYGLPIVGPIKDRWDYFYDQGAEEFFKSRIRKYNSTVYRVNMPPGAFIAENPQVVALLDGKSFPVLFDVDKVEKKDLFTGTYMPSTELTGGYRILSYLDPSEPKHEKLKNLLFFLLKSSRNRIFPEFQATYSELFDSLEKELSLKGKADFGGSSDGTAFNFLARAFYGTNPADTKLKADAPGLITKWVLFNLHPLLSIGLPRVIEEPLIHTFSLPPALVKSDYQRLYEFFLESAGEILVEADKLGISREEATHNLLFATCFNTWGGMKILFPNMVKRIGRAGHQVHNRLAEEIRSVIKSNGGELTMGAIEKMELTKSVVYECLRFEPPVTAQYGRAKKDLVIESHDAAFKVKAGEMLYGYQPLATRDPKIFDRADEFVPERFVGEEGEKLLRHVLWSNGPETETPTVGNKQCAGKDFVVLVARLFVIEIFRRYDSFDIEVGTSPLGSSVNFSSLRKASF,Km,[6],36.3 ± 1.3 µM
same,Vmax,[6],102 µmol/min
same,kcat,[6],256 ± 4.8 s⁻¹
same,kcat/Km,[6],7e+06 ± 3.8e+06 M⁻¹ s⁻¹
"SHLpLOX: position 9-product specific lipoxygenase derived from Lemna paucicostata SH strain (SEQ ID NO: 3), expressed in Escherichia coli (protein, listed as Lemna paucicostata) MAGFLQKVTDNLLHKAAKISGTVVLVKSNVVGFNDFADSFLDGLHELLGSGITFQLVSATVGDPKNGNKGKLGKPALLEKWITTGTFLAAGDSGFKVNFEWDEQLGVPGAVIVKNNHHGEFFLKSLTLDGAPGPRSRIHFDCNSWVYPYSTYNYDRVFFANDTYLPGEMPEPLKAYRAAELVNLRGDGVTRELKEGDRIYAYDLYNDLGDPDSGKELARPILGGSEEYPYPRRARTGRKLTKTDPKSEQRLPLVFSLNVYVPRDERFGHLKMSDFLAYSLKALAQGLVPALDAATDITPFEFDTFQDVLNLYEGGINLPTTPALENFKKQIPFPLVKELFRSDGENLFRLPTPSVIKADKFAWRTDEEFGREMLAGVNPVCIRLLKKFPPVSSLDPSIYRNQNSTMIADQLEKNMNGLSVEEALKQKKLFILDHHDSLMPYLERINTFNKIYASRTVLLLQDDGTLKPLAIELSLPVKGEKGAVSKVYTPAEHGVEGAVWQLAKAYVAVNDSGVHQLISHWLNTHATIEPFSIALNRQLSVVHPIYKLLHPHFRDTMNINAFARQILINAGGILEMTVFPGKYAMEMSSVVYKGWKLTDQALPVDLLNRGVAEKDPSSGELRLLIEDYPYAVDGLDVWNAIEEWVKEYCAIYYPSDKTLQDDTEVQAWWKEVREVGHGDKKDETWWPAMETVAELTQTCSTIIWVASALHAAVNFAQYPYAGYLPNRPTISRRFMPEPGTPEYEELETDPDRAFLKTITSQLQTLIGVSLIEILSRHSSDEIYLGQRVSAEWTSDAKALAAFKAFGEKLITIENKIIEMNVDSSLKNRNGPVKVPYTFLYPNTTDYTRVGGLTGRGIPNSISI",kcat/Km value relative to r9-LOX1,[7],about 1.6 fold
same,LOX activity (linolenic acid hydroperoxide formed) compared with r9-LOX1,[8],much higher activity than r9-LOX1
